Entries after “also recorded” stand apart in the source; their conditions may differ.
Tests used:
α-SMA = assay: Immunocytochemical analysis of α-SMA expression, rabbit corneal stromal cells; type: cell-based; settings: 10 mM EP
Protocol: FIG. 4. Immunocytochemical analysis of α-SMA expression. Rabbit corneal stromal cells in P2 growing in DMEM/F12 with 10% FBS were subcultured into 35 mm tissue culture dishes. After 24 hrs of incubation, the media were replaced with DMEM/F12 medium containing 1% FBS and TGF-β1 with or without (control) 10 mM EP and incubated for four days (media were changed every 24 hours). The cells were fixed and stained for α-SMA (green) using an indirect fluorescence technique as described herein.
For immunocytochemical analyses, the cells were cultured on glass cover slips or tissue culture dishes. Cells were rinsed with phosphate-buffered saline (PBS), fixed with paraformaldehyde-lysine-periodate and permeabilized with PIPES buffer containing 0.2% Triton X-100, as described previously (Guerriero et al., Invest. Opthalmol. Vis. Sci. 2007; 48: 627-635). Fixed and permeabilized cells were reacted with 10% heat-inactivated goat serum in PBS, pH 7.5, for 45 minutes to block the nonspecific binding of the secondary antibody, rinsed with PBS, and then treated with the primary and secondary antibodies as described previously (Guerriero et al. Invest. Opthalmol. Vis. Sci. 2007; 48: 627-635). Primary antibodies included monoclonal rat anti-α smooth muscle actin (SMA) and anti-fibronectin. […]

[1] = system: alpha-smooth muscle actin; assay: Western blot of TGF-β1 activated rabbit corneal keratocytes: alpha-smooth muscle actin; type: cell-based; settings: TGF-β1 (10 ng/ml)+1% FBS, two days, compared to controls with no treatment, listed as EP
Protocol: FIGS. 19A and 19B. Western blot analyses: Rabbit corneal keratocytes were isolated and cultured in serum-free DMEM/F12 into 60 mm tissue culture dishes. After 24 hrs of incubation, the media were replaced with DMEM/F12 medium containing TGF-β1(10 ng/ml)+1% FBS without (control) or with EP or EP-derivatives for two days. The cells were extracted in RIPA buffer and the extracts containing 5 μg of total proteins were loaded per lane for Western blot analysis.
Keratocytes or fibroblasts grown under different culture conditions were extracted in RIPA buffer (9.1 mM dibasic sodium phosphate, 1.7 mM monobasic sodium phosphate, 150 mM NaCl, pH, 7.4, 1% Nonidet P-40, 0.5% sodium deoxycholate, 0.1% SDS, 0.03 TIU/mL aprotinin, 1 mM sodium orthovanadate, and 100 μg/mL phenylmethylsulfonyl fluoride (PMSF)). Aliquots of cell extracts containing 50 or 100 μg protein were subjected to SDS-PAGE. Protein bands on SDS-PAGE were electrophoretically transferred to IMMOBILON-P™ membrane (Millipore Corp., Bedford, Mass.), stained with 0.1% Coomassie blue 250 in 40% methanol/1% acetic acid for 1 minute, destained one to three times with 50% methanol/1% acetic acid, scanned for densitometric comparisons of relative concentrations of proteins per lane, destained with methanol, and subjected to Western blot analysis. Immunoreactive bands were detected using chemiluminescence Western chemiluminescence reagents.
As described in Example 1, corneal stromal cells were isolated from rabbit corneas and cultured using the same procedures. The keratocytes in serum free media were treated with b-FGF (40 ng/ml)+HS (5 μg/ml) with or without 15 mM EP or 1, 2.5 or 5 mM following EP derivatives: 2-oxopropionic acid 3-methoxyphenyl ester, 2-oxopropionic acid 2-ethoxyethyl ester, 2-oxopropionic acid 2-chloroethyl ester, 2-oxopropionic acid isopropyl ester, 2-oxopropionic acid butyl ester, 2-oxopropionic acid p-tolyl ester, 2-oxopropionic acid tert-butyl ester. […] The relative levels of the expression of specific proteins were analyzed by Western blot analyses of the cell lysates as described supra.

In the case of `CCOC(=O)C(C)=O` [ethyl pyruvate], the “TGF-β1 induced expression of α-SMA (immunocytochemical)” value (α-SMA) is reported as “downregulated” and the “alpha-smooth muscle actin levels (Western blot)” value [1] is reported as “reduced expression; also recorded: reduced levels”.

From patent US8815946B2, “Inhibition of proliferation and fibrotic response of activated corneal stromal cells” (University of Pittsburgh—of the Commonwealth System of …, priority 2008, dated 2014)
